Values quoted from earlier work as cited in patent EP2662403B1, “Stabilizing resin formulation of halogen-containing polymers” (Reagens S.p.A., priority 2012, dated 2013).
Where two headings read alike, the source gives them in different places.

Settings: indication of the basicity of the polyalkylpiperidine in the formulation, no method or source given

pKb (Table 11) | pKb (Table 9) | pKb (Table 10) | pKb (Table 12) | SMILES
5.5-8.5 | – | – | – | CCCCN(c1nc(NCCCN(CCN(CCCNc2nc(N(CCCC)C3CC(C)(C)N(C)C(C)(C)C3)nc(N(CCCC)C3CC(C)(C)N(C)C(C)(C)C3)n2)c2nc(N(CCCC)C3CC(C)(C)N(C)C(C)(C)C3)nc(N(CCCC)C3CC(C)(C)N(C)C(C)(C)C3)n2)c2nc(N(CCCC)C3CC(C)(C)N(C)C(C)(C)C3)nc(N(CCCC)C3CC(C)(C)N(C)C(C)(C)C3)n2)nc(N(CCCC)C2CC(C)(C)N(C)C(C)(C)C2)n1)C1CC(C)(C)N(C)C(C)(C)C1 [Chimassorb 119]
5.5-8.5 | – | – | – | CN1C(C)(C)CC(OC(=O)CCCCCCCCC(=O)OC2CC(C)(C)N(C)C(C)(C)C2)CC1(C)C [Tinuvin 765, bis(1,2,2,6,6-pentamethyl-4-piperidyl)sebacate]
4.3-7.4 | 4.3-7.4 | 4.3-7.4 | 4.3-7.4 | CC1(C)CC(OC(=O)CCCCCCCCC(=O)OC2CC(C)(C)NC(C)(C)C2)CC(C)(C)N1 [Tinuvin 770, bis(2,2,6,6,-tetramethyl-4-piperidyl)sebacate]
